Test results as given in patent US20020193564A1, “Oligomeric chaperone proteins” (priority 1999, published 2002).

Experiments:
[1] = system: COS-7, PC12, and SH-SY5Y cells; settings: treatment with proteasome inhibitor; cited from earlier work
[2] = system: mutant Huntingdon exon 1-expressing PC12 and SH-SY5Y cells; settings: overexpression; cited from earlier work
COS-7 cells = settings: overexpression; cited from earlier work
GroES = GroES (Escherichia coli, UniProt P0A6F9); settings: ELISA, FIG. 5a
GroES, sequence (P0A6F9 whole entry): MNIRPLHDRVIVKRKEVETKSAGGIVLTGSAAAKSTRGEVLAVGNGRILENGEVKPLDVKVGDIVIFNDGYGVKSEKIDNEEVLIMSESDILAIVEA
Experimental: GroES Binding and Competition Assays by ELISA (Enzyme-Linked Immunosorbant Assay).
Proteins were coated onto plastic microtitre plates (Maxisorb, Nunc) overnight at 4° C. at a concentration of 10 μg/mL in carbonate buffer (50 mM NaHCO3, pH 9.6). Plates were blocked for 1 hour at 25° C. with 2% Marvel in PBS (phosphate buffered saline: 25 mM NaH2PO4, 125 mM NaCl, pH 7.0). GroES, at 10 μg/mL in 100 μL of 10 mM Tris-HCl, 200 mM KCl, pH 7.4, were bound at 25° C. for 1 hour. Bound GroES were detected with rabbit anti-GroES antibodies (Sigma) followed by anti-rabbit immunoglobulins horseradish peroxidase conjugated antibodies (Sigma).

[3] = target: T1, heat- and dithiothreitol-denatured mtMDH (Sus scrofa, UniProt P00346); test: In vitro refolding of denatured mtMDH; assay type: biochemical, pig; settings: FIG. 7b
T1 construct: Boehringer-Mannheim); purchased Boehringer-Mannheim; host or cells: pig heart
T1 sequence (P00346 25-338): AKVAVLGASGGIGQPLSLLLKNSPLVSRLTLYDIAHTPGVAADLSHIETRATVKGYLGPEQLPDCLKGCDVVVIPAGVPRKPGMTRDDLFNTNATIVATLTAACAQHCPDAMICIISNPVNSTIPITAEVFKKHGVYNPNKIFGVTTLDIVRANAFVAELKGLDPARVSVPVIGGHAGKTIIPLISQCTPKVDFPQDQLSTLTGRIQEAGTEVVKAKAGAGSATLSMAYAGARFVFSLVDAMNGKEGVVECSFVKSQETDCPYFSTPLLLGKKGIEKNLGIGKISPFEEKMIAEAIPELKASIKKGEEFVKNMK
Experimental: In vitro Refolding Experiments.
Refolding assays of pig heart mitochondrial malate dehydrogenase (mtMDH; Boehringer-Mannheim) and aggregation protection were carried out essentially as described (Peres Ben-Zvi, A. P., Chatellier, J., Fersht, A. R. & Goloubinoff, P. (1998) Proc. Natl. Acad. Sci. U.S.A. 95, 15275-15280). The concentrations of MC7 used were between 8-16 μM (reporter to protomer).

bacteriophage λ = test: Growth of bacteriophage λ in transformed groEL strains; assay type: cell-based, bacteriophage λ (b2cI) in E. coli; settings: SV1 (groE^+)
Excerpt: The E. Coli strains used in this study were: C41(DE3), a mutant of BL21(DE3) capable of expressing toxic genes (Miroux, B. & Walker, J. E. (1996) J. Mol. Biol. 260, 289-298); SV2 (B178groEL44), SV3 (B178groEL59) and SV6 (B178groEL673): isogenic strains carrying temperature-sensitive alleles of groEL; SV1(=B178) (Georgopoulos, C., Hendrix, R. W., Casjens, S. R. & Kaiser, A. D. (1973) J. Mol. Biol. 76, 45-60), A190 (ΔgroEL::kan^R) [pBAD-EL] (Ivic, A., Olden, D., Wallington, E. J. & Lund, P. A. (1997) Gene 194, 1-8), and TG1 (Gibson, T. J. (1984) Ph.D. thesis, University of Cambridge, U.K). Bacteriophage λb2cI (Zeilstra-Ryalls, J., Fayet, O., Baird, L. & Georgopoulos, C. (1993) J. Bacteriol. 175, 1134-1143) was used according to standard methods (Arber, W., Enquist, L., Hohn, B., Murray, N. E. & Murray, K. (1983) in Lambda II., ed. R. W. Hendrix, J. W. r., F. W. Stahl and R. A. Weisberg (Cold Spring Harbor Laboratory, Cold Spring Harbor, N.Y.), pp. 433-466); plaque formation was assayed at 30° C. T4D0, a derivative of bacteriophage T4 (Zeilstra-Ryalls, J., Fayet, O., Baird, L. & Georgopoulos, C. (1993) J. Bacteriol. 175, 1134-1143), was used according to standard methods (Karam, J. D. (1994) Molecular biology of bacteriophage T4. (American Society for Microbiology, Washington, D.C.)); plaque formation was assayed at 37° C.

CC(=O)N[C@@H](CSC(=O)[C@]1([C@@H](O)C(C)C)NC(=O)[C@H](C)[C@@H]1O)C(=O)O [lactacystin]
proportion of cells with inclusions of mutant huntingtin exon 1 [1]: increased the proportion of cells with inclusions

HDJ-2/HSDJ: a human HSP40 homologue
proportion of cells with inclusions / inclusion formation [2]: did not modify inclusion formation
inclusion formation in COS-7 cells (COS-7 cells): increased inclusion formation

B1: GroEL(191-376): monomeric minichaperone, apical domain of GroEL, residues 191 to 376 (protein, UniProt P0A6F5 191-376, looked up, fragment)
chain: EGMQFDRGYLSPYFINKPETGAVELESPFILLADKKISNIREMLPVLEAVAKAGKPLLIIAEDVEGEALATLVVNTMRGIVKVAAVKAPGFGDRRKAMLQDIATLTGGTVISEEIGMELEKATLEDLGQAKRVVINKDTTTIIDGVGEEAAIQGRVAQIRQQIEEATSDYDREKLQERVAKLAGGV
modifications: apical domain
Binding to GroES (GroES): did not detectably bind
enhancing the refolding rate of mtMDH [3]: ineffective in enhancing the refolding rate
Effect of over-expression on λ growth / plaque counts (bacteriophage λ): no effect on plaque counts
